Data on 2 molecules can be found in patent US20150072416A1, “METABOLITE FOR IMPROVING PRODUCTION, MAINTENANCE AND PROLIFERATION OF PLURIPOTENT STEM CELLS, COMPOSITION COMPRISING THE SAME, AND METHOD OF CULTURING PLURIPOTENT STEM CELL USING THE SAME” (KOREA RESEARCH INSTITUTE OF BIOSCIENCE AND BIOTENOLOGY, priority 2012, published 2015).

For the test, the system named is embryonic stem cells. The test is described as follows: Embryonic stem cells treated with NAD+ synthesis inhibitor FK866 and NAD precursors (NAD level, AP activity, apoptosis). Type of test: cell-based, human. How it is done:
Embryonic stem cells were treated with nicotinamide and related compounds, and after 6 days, protein was isolated from the cells. NAD cycling enzyme was added to and reacted with 20 μg of the protein per each group at room temperature for 5 minutes, and then a NADH developer was added and reacted therewith for 2-3 hours. The absorbance at 450 nm was measured using a microplate reader, and the amount of the […] was quantified.
AP staining was performed using a commercial AP kit (Sigma) according to the manufacturer's instruction. Images of AP-positive cells were recorded with HP Scanjet G4010. Also, bight field images were obtained with an Olympus microscope (IX51, Olympus, Japan).
In order to examine the effect of nicotinamide on a reduction in the apoptosis of human pluripotent stem cells, dual apoptosis assay (Biotium, Hayward, Calif.) was performed. Embryonic stem cells or cells reprogrammed were stained with NucView™488 Caspase-3 Substrate (green)/Annextin V (red) at room temperature for 30 minutes, followed by washing with PBS. At least 4 sections of each sample were imaged with an Olympus fluorescence microscope (IX51, Olympus), and the number of cells stained with green (Caspase-3) was counted to quantify the degree of apoptosis.

On to `O=C(O)c1cccnc1` [nicotinic acid], for which the “recovery from damage caused by FK866” value (co-treatment with FK866, also in mTeSR1-CDM) is “recovered”.
As to `O=C(/C=C/c1cccnc1)NCCCCC1CCN(C(=O)c2ccccc2)CC1` [FK866], under “treated with FK866”, the apoptosis result was “induced”, the “concentration of NAD in the cells” value is “decreased” and the “state of the embryonic stem cells” value is “differentiated”.
